Data on 1 substance can be found in patent US12527812B2, “Esophageal stricture suppressing agent” (priority 2019, dated 2026).

The subject of data set [1] is esophageal stricture after entire circumference (100%) ESD. Briefly: esophageal entire circumference (100%) ESD model, degree of esophageal stricture by macroscopical findings and histopathological analysis (Masson staining). The data set is classed as in vivo. An excerpt: For the production of an esophageal entire circumference (100%) ESD model, miniature pigs for experiments were used.
As miniature pigs, three groups of a physiological saline administered group, a steroid preparation (Kenacort) administered group, and a CHST15 siRNA (manufactured by Hokkaido System Science Co., Ltd., lot number: 40481638) administered group were used (n=1/group). The miniature pig in each group was orally inserted with an upper gastrointestinal endoscope under general anesthesia and respiratory control, and an entire circumference (100%) ESD was performed using a dual knife with a total length of […] between 15 cm and 25 cm from the portal dentition. Into an entire circumference artificial ulcer immediately after preforming ESD was injected 2 mL in total of an administration solution (physiological saline, steroid preparation, CHST15 siRNA, 250 nM solution) using an endoscopic injection needle at a total of 20 locations so as to evenly cover the entire circumference from the ulcer bottom.
If no treatment is performed after ESD, esophageal stricture will develop within 2 weeks and food will not pass through, and the miniature pig will die within 4 weeks thereafter, so that the observation period after a single time administration was set to 2 weeks, the entire group was slaughtered after 2 weeks (Day 14), and the degree of esophageal stricture was investigated by macroscopical findings, and histopathological analysis (Masson staining).

Data set [2] deals with stricture esophageal tissue after ESD. Conditions: half circumferential (50%) ESD; Document 14; cited from earlier work.
Setting [3] is: single local injection immediately after ESD, Day 14, n=1/group.

In the case of “CHST15 siRNA: siRNA having a structure in which the RNAs described in SEQ ID NOs:1 and 2 are hybridized; suppresses expression of the CHST15 gene (chain 1 GGAGCAGAGCAAGAUGAAUACAAUCAG; chain 2 GAUUGUAUUCAUCUUGCUCUGCUCCAU; chemistry not given here)”, the “suppressing effect of esophageal stricture after entire circumference ESD (overall)” value in data set [1] (consideration / summary of Example 1) is given as “remarkable stricture suppressing effect”. The “damage of the muscular layer (pathological findings, Masson staining)” value in data set [1] (pig, in vivo) is “no damage of the muscular layer was observed”. In data set [1] (setting [3]), the “artificial ulcer repair / regenerated epithelium (pathological findings, Masson staining)” value is on record as “almost covered with regenerated epithelium”; the “edible state (macroscopical findings)” value is “edible”; the “esophageal stricture / obstruction (macroscopical findings)” value is recorded as “no stricture or obstruction”; the “fibrosis deeper than the ulcer floor (pathological findings, Masson staining)” value is recorded as “no pathological fibrosis”. For the same substance, the “shortening of esophageal length (macroscopical findings)” value in data set [1] (single local injection into artificial ulcer immediately after ESD, 2 mL in total at 20 locations (CHST15 siRNA 250 nM solution), Day 14, n=1/group) is on record as “substantially not observed”. Further, the “fibrosis when expression of CHST15 mRNA is suppressed” value in data set [2] is “fibrosis is suppressed”.
